Measured values from US20130274174A1, “THERAPEUTIC COMBINATION OF DAPTOMYCIN AND PROTEIN SYNTHESIS INHIBITOR ANTIBIOTIC, AND METHODS OF USE” (priority 2011, published 2013).
Converted amounts (≈) assume the structure as drawn. “Also recorded” adds a separate entry of the source. Read-outs that look alike come from different tables or passages of the source.

Columns and labels:
[1] = system: Staphylococcus aureus 100 (ATCC 29213); assay: FIC checkerboard broth microdilution, control combinations; type: cell-based; settings: ATCC29213, agent alone, repeated determinations by date
Method: Test articles of stock solutions of daptomycin (Cubist, lot MCB2007) and TR-700 were prepared at 40 times the final target concentration in DMSO:water (1:1). DMSO was added first, the solutions were allowed to stand for 60 minutes and then the water was added. […] The final DMSO concentration was 2.5%. The final drug concentrations in the FIC assay plates were set to bracket the MIC value of each test article for each test organism, unless the strain was totally resistant to the test article.
The test organisms were originally received from clinical sources, or from the American Type Culture Collection. […] Aliquots were then frozen at −80° C.
The broth was prepared at 1.05× normal weight/volume to offset the 5% volume of the drugs in the final test plates.
Antimicrob. Agents Chemother.
These plates were used to prepare the drug “mother plates” which provided the serial drug dilutions for the drug combination plates.
The “daughter plates” were loaded with 180 μL of test medium using the Multidrop 384. Then, the Multimek 96 was used to transfer 10 μL of drug solution from each well of the drug combination mother plate to each corresponding well of the daughter plate in a single step.

S. aureus MW2 (NRS123) = assay: microbe, parasite or virus in culture; type: cell-based, Staphylococcus aureus; settings: for MIC: Staphylococcus aureus
Method: S. aureus strains MW2 (NARSA collection clinical MRSA isolate, NRS123) and ATCC 33591 (MRSA strain from the American Type Culture Collection) were cultured on Mueller-Hinton II cation adjusted (MHA) medium in 90×90 mm square petri dishes. MHA containing ¼ of the MIC value of TR-700, TR-705, LZD, TIA, CLI, TET, or VAN, TMP/SMX throughout the plate and a continuous linear gradient of DAP across the plate was used to passage MW2. ATCC 33591 was passaged with ¼ of the MIC of a subset of these drugs (TR-700, TMP/SMX, and VAN). A DAP-only control passage group was included for both strains. DAP gradients were created by pouring two layers of media as previously described (Bryson, V., et al. 1952. Microbial selection. Science 116:45-51; Locke, J. B., et al., 2009. Antimicrob. Agents Chemother. 53:5265-5274). Following each passage the leading edge of growth (i.e., most resistant cells) was resuspended in phosphate buffered saline (PBS) to an absorbance of 0.30 OD600 and a 100 μl aliquot containing ˜3.0×10^7 CFU (colony-forming units) was spread on to the proceeding passage plate. The starting maximal DAP concentration was 2 μg/ml and was increased in two-fold increments when the leading edge of growth surpassed the half way point on the plate. A glycerol stock was made from the total cell population for each culture condition for each passage. Thirty serial passages were completed for each treatment group.

S. aureus [2] = settings: Locke et al. 2009; cited from earlier work
S. aureus [3] = settings: co-selection with a subinhibitory concentration; Berti et al. 2012; cited from earlier work

O=C(O)[C@H]1/C(=C/CO)O[C@@H]2CC(=O)N21 [Clavulanate]
MIC [1]: 16 µg/mL

CC(=O)NC[C@H]1CN(c2ccc(N3CCOCC3)c(F)c2)C(=O)O1 [LZD, linezolid]
MIC (S. aureus MW2 (NRS123); NRS123, passage 0, NRS123 WT): 2 µg/mL (≈ 5.93 µM)
MIC (S. aureus MW2 (NRS123); NRS123, passage 5, selection group DAP): 2 µg/mL (≈ 5.93 µM)
MIC (S. aureus MW2 (NRS123); NRS123, passage 5, selection group DAP + CLI): 2 µg/mL
MIC (S. aureus MW2 (NRS123); NRS123, passage 5, selection group DAP + LZD): 2 µg/mL
MIC (S. aureus MW2 (NRS123); NRS123, passage 5, selection group DAP + TET): 2 µg/mL
MIC (S. aureus MW2 (NRS123); NRS123, passage 5, selection group DAP + TIA): 2 µg/mL
MIC (S. aureus MW2 (NRS123); NRS123, passage 5, selection group DAP + TMP/SMX): 1 µg/mL
MIC (S. aureus MW2 (NRS123); NRS123, passage 5, selection group DAP + TR-700): 2 µg/mL
MIC (S. aureus MW2 (NRS123); NRS123, passage 5, selection group DAP + TR-705): 2 µg/mL
MIC (S. aureus MW2 (NRS123); NRS123, passage 5, selection group DAP + VAN): 1 µg/mL
MIC (S. aureus MW2 (NRS123); NRS123, passage 10, selection group DAP): 2 µg/mL (≈ 5.93 µM)
MIC (S. aureus MW2 (NRS123); NRS123, passage 10, selection group DAP + CLI): 2 µg/mL
MIC (S. aureus MW2 (NRS123); NRS123, passage 10, selection group DAP + LZD): 2 µg/mL
MIC (S. aureus MW2 (NRS123); NRS123, passage 10, selection group DAP + TET): 2 µg/mL
MIC (S. aureus MW2 (NRS123); NRS123, passage 10, selection group DAP + TIA): 2 µg/mL
MIC (S. aureus MW2 (NRS123); NRS123, passage 10, selection group DAP + TMP/SMX): 2 µg/mL
MIC (S. aureus MW2 (NRS123); NRS123, passage 10, selection group DAP + TR-700): 2 µg/mL
MIC (S. aureus MW2 (NRS123); NRS123, passage 10, selection group DAP + TR-705): 2 µg/mL
MIC (S. aureus MW2 (NRS123); NRS123, passage 10, selection group DAP + VAN): 1 µg/mL
MIC (S. aureus MW2 (NRS123); NRS123, passage 15, selection group DAP): 1 µg/mL (≈ 2.96 µM)
MIC (S. aureus MW2 (NRS123); NRS123, passage 15, selection group DAP + CLI): 2 µg/mL
MIC (S. aureus MW2 (NRS123); NRS123, passage 15, selection group DAP + LZD): 2 µg/mL
MIC (S. aureus MW2 (NRS123); NRS123, passage 15, selection group DAP + TET): 1 µg/mL
MIC (S. aureus MW2 (NRS123); NRS123, passage 15, selection group DAP + TIA): 2 µg/mL
MIC (S. aureus MW2 (NRS123); NRS123, passage 15, selection group DAP + TMP/SMX): 2 µg/mL
MIC (S. aureus MW2 (NRS123); NRS123, passage 15, selection group DAP + TR-700): 2 µg/mL
MIC (S. aureus MW2 (NRS123); NRS123, passage 15, selection group DAP + TR-705): 2 µg/mL
MIC (S. aureus MW2 (NRS123); NRS123, passage 15, selection group DAP + VAN): 1 µg/mL
MIC (S. aureus MW2 (NRS123); NRS123, passage 20, selection group DAP): 2 µg/mL (≈ 5.93 µM)
MIC (S. aureus MW2 (NRS123); NRS123, passage 20, selection group DAP + CLI): 2 µg/mL
MIC (S. aureus MW2 (NRS123); NRS123, passage 20, selection group DAP + LZD): 2 µg/mL
MIC (S. aureus MW2 (NRS123); NRS123, passage 20, selection group DAP + TET): 1 µg/mL
MIC (S. aureus MW2 (NRS123); NRS123, passage 20, selection group DAP + TIA): 2 µg/mL
MIC (S. aureus MW2 (NRS123); NRS123, passage 20, selection group DAP + TMP/SMX): 2 µg/mL
MIC (S. aureus MW2 (NRS123); NRS123, passage 20, selection group DAP + TR-700): 2 µg/mL
MIC (S. aureus MW2 (NRS123); NRS123, passage 20, selection group DAP + TR-705): 2 µg/mL
MIC (S. aureus MW2 (NRS123); NRS123, passage 20, selection group DAP + VAN): 1 µg/mL
MIC (S. aureus MW2 (NRS123); NRS123, passage 25, selection group DAP): 1 µg/mL (≈ 2.96 µM)
MIC (S. aureus MW2 (NRS123); NRS123, passage 25, selection group DAP + CLI): 2 µg/mL
MIC (S. aureus MW2 (NRS123); NRS123, passage 25, selection group DAP + LZD): 1 µg/mL
MIC (S. aureus MW2 (NRS123); NRS123, passage 25, selection group DAP + TET): 1 µg/mL
MIC (S. aureus MW2 (NRS123); NRS123, passage 25, selection group DAP + TIA): 2 µg/mL
MIC (S. aureus MW2 (NRS123); NRS123, passage 25, selection group DAP + TMP/SMX): 2 µg/mL
MIC (S. aureus MW2 (NRS123); NRS123, passage 25, selection group DAP + TR-700): 2 µg/mL
MIC (S. aureus MW2 (NRS123); NRS123, passage 25, selection group DAP + TR-705): 2 µg/mL
MIC (S. aureus MW2 (NRS123); NRS123, passage 25, selection group DAP + VAN): 1 µg/mL
MIC (S. aureus MW2 (NRS123); NRS123, passage 30, selection group DAP): 1 µg/mL (≈ 2.96 µM)
MIC (S. aureus MW2 (NRS123); NRS123, passage 30, selection group DAP + CLI): 2 µg/mL
MIC (S. aureus MW2 (NRS123); NRS123, passage 30, selection group DAP + LZD): 2 µg/mL
MIC (S. aureus MW2 (NRS123); NRS123, passage 30, selection group DAP + TET): 1 µg/mL
MIC (S. aureus MW2 (NRS123); NRS123, passage 30, selection group DAP + TIA): 2 µg/mL
MIC (S. aureus MW2 (NRS123); NRS123, passage 30, selection group DAP + TMP/SMX): 2 µg/mL
MIC (S. aureus MW2 (NRS123); NRS123, passage 30, selection group DAP + TR-700): 2 µg/mL
MIC (S. aureus MW2 (NRS123); NRS123, passage 30, selection group DAP + TR-705): 2 µg/mL
MIC (S. aureus MW2 (NRS123); NRS123, passage 30, selection group DAP + VAN): 2 µg/mL
MIC (S. aureus MW2 (NRS123); NRS123, read-out: DAP MIC by the end of the experiment (selection of DAP^ns strains), MW2, passaged with DAP alone or with co-selecting agent at ¼ MIC, CLSI breakpoint): > 1 µg/mL
effect on preventing the emergence of DAP^ns (S. aureus MW2 (NRS123); co-selection at ¼ MIC, VAN: both backgrounds): did not prevent the emergence of DAP non-susceptibility; also recorded: no effect on preventing DAP^ns
susceptibility to the co-selecting agent in its co-selection group (S. aureus MW2 (NRS123); over the course of 30 passages): no increases in LZD MIC values over WT were observed
S. aureus mutation frequency higher than for TR-700 (S. aureus [2]): > 10 fold
effect on preventing the emergence of DAP^ns S. aureus (S. aureus [3]): did not have any effect on preventing the emergence of DAP^ns S. aureus
